# System: PABPC1 PABC
# Type: binding, human
# Settings: DMS-BM library, bait PABPC1 PABC, row aa = residue at this position; for DMS-derived PSSM value (averaged), position T1 / DMS-derived PSSM value, position T3: T = wild type; for DMS-derived PSSM value, position K7 / DMS-derived PSSM value (averaged), position K7 / DMS-derived PSSM value, position K9: K = wild type
# [1] = prey ATXN2, peptide KSTLNPNAKEFNPRSF, F = wild type
# [2] = prey ATXN2, TLNPNAKEFNPRSF(averaged) over the two overlapping peptides
# [3] = prey ATXN2, TLNPNAKEFNPRSF(averaged) over the two overlapping peptides, F = wild type
# [4] = prey ATXN2, peptide TLNPNAKEFNPRSFSQ, E = wild type
# [5] = prey ATXN2, peptide TLNPNAKEFNPRSFSQ, F = wild type
# [6] = prey ATXN2, peptide TLNPNAKEFNPRSFSQ
# [7] = prey ATXN2, peptide KSTLNPNAKEFNPRSF, E = wild type
# [8] = prey ATXN2, peptide TLNPNAKEFNPRSFSQ, N = wild type
# [9] = prey ATXN2, peptide KSTLNPNAKEFNPRSF, N = wild type
# [10] = prey ATXN2, TLNPNAKEFNPRSF(averaged) over the two overlapping peptides, R = wild type
# [11] = prey ATXN2, TLNPNAKEFNPRSF(averaged) over the two overlapping peptides, N = wild type
# [12] = prey ATXN2, TLNPNAKEFNPRSF(averaged) over the two overlapping peptides, P = wild type
# [13] = prey ATXN2, peptide KSTLNPNAKEFNPRSF, P = wild type
# [14] = prey ATXN2, peptide KSTLNPNAKEFNPRSF
# [15] = prey ATXN2, TLNPNAKEFNPRSF(averaged) over the two overlapping peptides, A = wild type
# [16] = prey ATXN2, peptide TLNPNAKEFNPRSFSQ, P = wild type
# [17] = prey ATXN2, peptide TLNPNAKEFNPRSFSQ, S = wild type
substance,measurement,setting,value
KSTLNPNAKEFNPRSF F16L (KSTLNPNAKEFNPRSL),"DMS-derived PSSM value, position F16",[1],0.2967
TLNPNAKEFNPRSF(averaged) T1F (FLNPNAKEFNPRSF),"DMS-derived PSSM value (averaged), position T1",[2],0.03587
TLNPNAKEFNPRSF(averaged) F9H (TLNPNAKEHNPRSF),"DMS-derived PSSM value (averaged), position F9",[3],0
TLNPNAKEFNPRSFSQ E8T (TLNPNAKTFNPRSFSQ),"DMS-derived PSSM value, position E8",[4],0.09413
TLNPNAKEFNPRSFSQ F9Q (TLNPNAKEQNPRSFSQ),"DMS-derived PSSM value, position F9",[5],0
KSTLNPNAKEFNPRSF F11W (KSTLNPNAKEWNPRSF),"DMS-derived PSSM value, position F11",[1],0.203
TLNPNAKEFNPRSFSQ K7H (TLNPNAHEFNPRSFSQ),"DMS-derived PSSM value, position K7",[6],0.02911
KSTLNPNAKEFNPRSF E10K (KSTLNPNAKKFNPRSF),"DMS-derived PSSM value, position E10",[7],0.06317
TLNPNAKEFNPRSFSQ N5H (TLNPHAKEFNPRSFSQ),"DMS-derived PSSM value, position N5",[8],0.04051
KSTLNPNAKEFNPRSF N7H (KSTLNPHAKEFNPRSF),"DMS-derived PSSM value, position N7",[9],0.03167
TLNPNAKEFNPRSFSQ F9P (TLNPNAKEPNPRSFSQ),"DMS-derived PSSM value, position F9",[5],0
TLNPNAKEFNPRSF(averaged) T1M (MLNPNAKEFNPRSF),"DMS-derived PSSM value (averaged), position T1",[2],0.04356
TLNPNAKEFNPRSFSQ F14V (TLNPNAKEFNPRSVSQ),"DMS-derived PSSM value, position F14",[5],0.06499
TLNPNAKEFNPRSFSQ E8D (TLNPNAKDFNPRSFSQ),"DMS-derived PSSM value, position E8",[4],0
TLNPNAKEFNPRSF(averaged) R12K (TLNPNAKEFNPKSF),"DMS-derived PSSM value (averaged), position R12",[10],0.01002
TLNPNAKEFNPRSF(averaged) N10K (TLNPNAKEFKPRSF),"DMS-derived PSSM value (averaged), position N10",[11],0.01006
KSTLNPNAKEFNPRSF N7V (KSTLNPVAKEFNPRSF),"DMS-derived PSSM value, position N7",[9],0.01745
TLNPNAKEFNPRSF(averaged) K7L (TLNPNALEFNPRSF),"DMS-derived PSSM value (averaged), position K7",[2],0.03789
TLNPNAKEFNPRSFSQ L2P (TPNPNAKEFNPRSFSQ),"DMS-derived PSSM value, position L2","prey ATXN2, peptide TLNPNAKEFNPRSFSQ, L = wild type",0.03756
TLNPNAKEFNPRSF(averaged) T1L (LLNPNAKEFNPRSF),"DMS-derived PSSM value (averaged), position T1",[2],0.06577
TLNPNAKEFNPRSF(averaged) P4D (TLNDNAKEFNPRSF),"DMS-derived PSSM value (averaged), position P4",[12],0
KSTLNPNAKEFNPRSF P6F (KSTLNFNAKEFNPRSF),"DMS-derived PSSM value, position P6",[13],0
KSTLNPNAKEFNPRSF K9I (KSTLNPNAIEFNPRSF),"DMS-derived PSSM value, position K9",[14],0.4039
KSTLNPNAKEFNPRSF P6M (KSTLNMNAKEFNPRSF),"DMS-derived PSSM value, position P6",[13],0
TLNPNAKEFNPRSF(averaged) A6N (TLNPNNKEFNPRSF),"DMS-derived PSSM value (averaged), position A6",[15],0
TLNPNAKEFNPRSFSQ P4E (TLNENAKEFNPRSFSQ),"DMS-derived PSSM value, position P4",[16],0.001688
KSTLNPNAKEFNPRSF N12V (KSTLNPNAKEFVPRSF),"DMS-derived PSSM value, position N12",[9],0.2093
TLNPNAKEFNPRSFSQ F9N (TLNPNAKENNPRSFSQ),"DMS-derived PSSM value, position F9",[5],0
TLNPNAKEFNPRSF(averaged) K7V (TLNPNAVEFNPRSF),"DMS-derived PSSM value (averaged), position K7",[2],0.003972
KSTLNPNAKEFNPRSF N7K (KSTLNPKAKEFNPRSF),"DMS-derived PSSM value, position N7",[9],0.007258
TLNPNAKEFNPRSF(averaged) F14M (TLNPNAKEFNPRSM),"DMS-derived PSSM value (averaged), position F14",[3],0.1425
TLNPNAKEFNPRSFSQ N3M (TLMPNAKEFNPRSFSQ),"DMS-derived PSSM value, position N3",[8],0
TLNPNAKEFNPRSFSQ A6W (TLNPNWKEFNPRSFSQ),"DMS-derived PSSM value, position A6","prey ATXN2, peptide TLNPNAKEFNPRSFSQ, A = wild type",0
TLNPNAKEFNPRSFSQ K7L (TLNPNALEFNPRSFSQ),"DMS-derived PSSM value, position K7",[6],0.0009142
KSTLNPNAKEFNPRSF N12P (KSTLNPNAKEFPPRSF),"DMS-derived PSSM value, position N12",[9],0
KSTLNPNAKEFNPRSF K9P (KSTLNPNAPEFNPRSF),"DMS-derived PSSM value, position K9",[14],0.004179
KSTLNPNAKEFNPRSF A8M (KSTLNPNMKEFNPRSF),"DMS-derived PSSM value, position A8","prey ATXN2, peptide KSTLNPNAKEFNPRSF, A = wild type",0
TLNPNAKEFNPRSF(averaged) N5H (TLNPHAKEFNPRSF),"DMS-derived PSSM value (averaged), position N5",[11],0.03609
TLNPNAKEFNPRSF(averaged) R12A (TLNPNAKEFNPASF),"DMS-derived PSSM value (averaged), position R12",[10],0.05134
TLNPNAKEFNPRSFSQ F14M (TLNPNAKEFNPRSMSQ),"DMS-derived PSSM value, position F14",[5],0.2558
TLNPNAKEFNPRSFSQ S15D (TLNPNAKEFNPRSFDQ),"DMS-derived PSSM value, position S15",[17],0.0138
TLNPNAKEFNPRSFSQ P4W (TLNWNAKEFNPRSFSQ),"DMS-derived PSSM value, position P4",[16],0
KSTLNPNAKEFNPRSF P6N (KSTLNNNAKEFNPRSF),"DMS-derived PSSM value, position P6",[13],0
KSTLNPNAKEFNPRSF R14W (KSTLNPNAKEFNPWSF),"DMS-derived PSSM value, position R14","prey ATXN2, peptide KSTLNPNAKEFNPRSF, R = wild type",0.1772
KSTLNPNAKEFNPRSF T3D (KSDLNPNAKEFNPRSF),"DMS-derived PSSM value, position T3",[14],0.0007076
KSTLNPNAKEFNPRSF S2Y (KYTLNPNAKEFNPRSF),"DMS-derived PSSM value, position S2","prey ATXN2, peptide KSTLNPNAKEFNPRSF, S = wild type",0.2105
TLNPNAKEFNPRSF(averaged) P4I (TLNINAKEFNPRSF),"DMS-derived PSSM value (averaged), position P4",[12],0.2825
TLNPNAKEFNPRSFSQ N3E (TLEPNAKEFNPRSFSQ),"DMS-derived PSSM value, position N3",[8],0
TLNPNAKEFNPRSFSQ P4N (TLNNNAKEFNPRSFSQ),"DMS-derived PSSM value, position P4",[16],0.001049
TLNPNAKEFNPRSF(averaged) P4Q (TLNQNAKEFNPRSF),"DMS-derived PSSM value (averaged), position P4",[12],0.01774
TLNPNAKEFNPRSF(averaged) R12V (TLNPNAKEFNPVSF),"DMS-derived PSSM value (averaged), position R12",[10],0.08681
TLNPNAKEFNPRSFSQ S15L (TLNPNAKEFNPRSFLQ),"DMS-derived PSSM value, position S15",[17],0.001672
KSTLNPNAKEFNPRSF P13W (KSTLNPNAKEFNWRSF),"DMS-derived PSSM value, position P13",[13],0.01574
TLNPNAKEFNPRSFSQ S13I (TLNPNAKEFNPRIFSQ),"DMS-derived PSSM value, position S13",[17],0
TLNPNAKEFNPRSF(averaged) K7T (TLNPNATEFNPRSF),"DMS-derived PSSM value (averaged), position K7",[2],0.01485
TLNPNAKEFNPRSF(averaged) A6V (TLNPNVKEFNPRSF),"DMS-derived PSSM value (averaged), position A6",[15],0.3197
TLNPNAKEFNPRSFSQ F9A (TLNPNAKEANPRSFSQ),"DMS-derived PSSM value, position F9",[5],0
TLNPNAKEFNPRSF(averaged) R12S (TLNPNAKEFNPSSF),"DMS-derived PSSM value (averaged), position R12",[10],0.1293
TLNPNAKEFNPRSF(averaged) E8A (TLNPNAKAFNPRSF),"DMS-derived PSSM value (averaged), position E8","prey ATXN2, TLNPNAKEFNPRSF(averaged) over the two overlapping peptides, E = wild type",0.01267
TLNPNAKEFNPRSF(averaged) R12Y (TLNPNAKEFNPYSF),"DMS-derived PSSM value (averaged), position R12",[10],0.04827
TLNPNAKEFNPRSF(averaged) A6S (TLNPNSKEFNPRSF),"DMS-derived PSSM value (averaged), position A6",[15],0.04153
KSTLNPNAKEFNPRSF N7L (KSTLNPLAKEFNPRSF),"DMS-derived PSSM value, position N7",[9],0.04259
TLNPNAKEFNPRSF(averaged) K7W (TLNPNAWEFNPRSF),"DMS-derived PSSM value (averaged), position K7",[2],0.01767
TLNPNAKEFNPRSFSQ N5W (TLNPWAKEFNPRSFSQ),"DMS-derived PSSM value, position N5",[8],0.001259
KSTLNPNAKEFNPRSF T3H (KSHLNPNAKEFNPRSF),"DMS-derived PSSM value, position T3",[14],0.01262
TLNPNAKEFNPRSF(averaged) A6W (TLNPNWKEFNPRSF),"DMS-derived PSSM value (averaged), position A6",[15],0
KSTLNPNAKEFNPRSF E10F (KSTLNPNAKFFNPRSF),"DMS-derived PSSM value, position E10",[7],0
KSTLNPNAKEFNPRSF E10N (KSTLNPNAKNFNPRSF),"DMS-derived PSSM value, position E10",[7],0.01939
TLNPNAKEFNPRSFSQ N10W (TLNPNAKEFWPRSFSQ),"DMS-derived PSSM value, position N10",[8],0.06015

# — PMC12102759 (Protein Science : A Publication of the Protein Society, 2025)
